Consider one molecule from publication PMC7369637, “Inhibition of Resistance-Refractory P. falciparum Kinase PKG Delivers Prophylactic, Blood Stage, and Transmission-Blocking Antiplasmodial Activity” (Cell Chemical Biology, 2020).

Like-named read-outs stand apart in the source and are kept apart here.

Test [1] addresses T1, cGMP-dependent protein kinase (PKG) (PF3D7_1436600) (Plasmodium falciparum, UniProt Q8I719).
T1 construct: The beads were incubated at 4°C for 1 h with either 0.1 ml (0.3 mg) Pf blood stage extract; endogenous in cells; host or cells: P. falciparum asexual blood-stage parasites (trophozoite stage), saponin-freed and lysed
Briefly: Competitive chemoproteomics in Pf lysates (Kinobeads / bead-immobilized compound). In kind it is binding. As to conditions: lysates exposed to 40 μM of the same compound vs vehicle.
Protocol: Parasite cultures at the trophozoite stage were harvested, washed twice in RPMI 1640 medium (Gibco), and lysed by the addition of saponin to a final concentration of 0.1% for 5 min at room temperature. Free parasites were sedimented by centrifugation (3500 rpm for 10 min), washed three times with phosphate-buffered saline, and stored at −80°C. Parasites were resuspended in cell lysis buffer (50 mM tris-HCl (pH 7.5), 5% glycerol, 1.5 mM MgCl2, 1.5 mM NaCl, 1 mM Na3PO4, 25 mM sodium fluoride, 0.8% NP-40, EDTA-free protease inhibitor cocktail tablets (Roche Diagnostics), and 1 mM DTT) and disrupted by sonication (Sonics Vibra-Cell) using two 30-s cycles on ice at half-amplitude. […]
Kinobeads were prepared by immobilizing Bis-(III) indolyl-maleimide, purvalanol B, staurosporine and CZC8004, and the analogs of PD173955, sunitinib and vandetanib on NHS-activated Sepharose 4 beads (Amersham) ([Bantscheff et al., 2007]). […] 10 samples were measured in parallel (TMT 10-plex ([Werner et al., 2014])) to generate values for the affinity of the beads to the bound proteins (“depletion” values, 4 samples) and to generate IC50 values (6 samples) in a single experiment. Apparent dissociation constants were determined after accounting for protein depletion by the beads ([Bantscheff et al., 2011]). […]

In a further test the test system is Pf ABS parasites. The test can be described thus: Light microscopy of ABS development. In kind it is cell-based, Plasmodium falciparum. Particulars: ring-stage parasites exposed to 350 nM (approximately 3 × IC50).
Test [2] has as its system early and late stage gametocytes (3D7elo1-pfs16-CBG99). The test can be described thus: Gametocyte susceptibility, CBG99-luciferase assay. In kind it is cell-based. Particulars: Plasmodium falciparum. As for the experimental part: This was determined using two separate assays. The first involved MitoTracker staining and high-content imaging. Mature (stage V) gametocytes were generated from NF54 ABS cultures as described elsewhere ([Plouffe et al., 2016]). Briefly, asexual parasites were cultured at 5% hematocrit in O^+ human erythrocytes in serum-containing complete media (RPMI 1640 (Life Technologies), 0.05 mg/ml gentamicin (Life Technologies), 0.014 mg/ml hypoxanthine (Sigma), 38.4 mM HEPES (Sigma), 0.2% (w/v) sodium bicarbonate (Sigma), D-glucose 0.2% (w/v) (Sigma), 3.4 mM sodium hydroxide (Sigma), 4.3% (v/v) heat-inactivated human serum (O^+, Interstate Blood bank), and 0.2% (w/v) AlbuMAX® II (Life Technologies)). Parasites were cultured at 37 °C under low-oxygen conditions (3% O2, 5% CO2, 92% N2) and parasitemias were maintained between 0.5% and 3% in cultures with 5% hematocrit. Ring-stage parasites underwent three rounds of synchronization with 5% (w/v) D-Sorbitol (Sigma), on days -8, -6 and -4 relative to the day of initiating gametocyte production. Trophozoite-stage parasites were shaken overnight at 37°C until day -1. On day -2 only 50% of the media was exchanged to provide additional stress to cultures, whose parasitemias had typically attained 7-10%. Complete media exchange was performed daily from day -1 onwards. Stage V gametocytes were treated with 50 mM N-acetyl glucosamine (Sigma) on days 0-9. […] The second assay assessed gametocyte susceptibility using a luciferase-based assay with 3D7elo1-pfs16-CBG99 transgenic parasites ([Cevenini et al., 2014]). […] Cell viability was then evaluated by adding a non-lysing formulation of 0.5 mM D-Luciferin substrate and measuring luciferase activity for 0.5 s on a Varioskan™ Flash Multimode Reader (Thermo Scientific). The percent of viability was calculated as a function of drug concentration and IC50 values were derived by non-linear regression analysis and curve fitting (using GraphPad Prism 6.0).

Test [3] relates to ed. Dd2-B2 TKL3I1250M+T1268R. The test can be described thus: 72-h ABS assay, CRISPR/Cas9-edited double-mutant line. Particulars: Plasmodium falciparum, parent Dd2-B2 wild-type. In kind it is cell-based. An excerpt:
Supplement mmc2.xlsx, sheet "Table S1 (I)" | column: Mean IC50

T1 sequence (Q8I719 whole entry): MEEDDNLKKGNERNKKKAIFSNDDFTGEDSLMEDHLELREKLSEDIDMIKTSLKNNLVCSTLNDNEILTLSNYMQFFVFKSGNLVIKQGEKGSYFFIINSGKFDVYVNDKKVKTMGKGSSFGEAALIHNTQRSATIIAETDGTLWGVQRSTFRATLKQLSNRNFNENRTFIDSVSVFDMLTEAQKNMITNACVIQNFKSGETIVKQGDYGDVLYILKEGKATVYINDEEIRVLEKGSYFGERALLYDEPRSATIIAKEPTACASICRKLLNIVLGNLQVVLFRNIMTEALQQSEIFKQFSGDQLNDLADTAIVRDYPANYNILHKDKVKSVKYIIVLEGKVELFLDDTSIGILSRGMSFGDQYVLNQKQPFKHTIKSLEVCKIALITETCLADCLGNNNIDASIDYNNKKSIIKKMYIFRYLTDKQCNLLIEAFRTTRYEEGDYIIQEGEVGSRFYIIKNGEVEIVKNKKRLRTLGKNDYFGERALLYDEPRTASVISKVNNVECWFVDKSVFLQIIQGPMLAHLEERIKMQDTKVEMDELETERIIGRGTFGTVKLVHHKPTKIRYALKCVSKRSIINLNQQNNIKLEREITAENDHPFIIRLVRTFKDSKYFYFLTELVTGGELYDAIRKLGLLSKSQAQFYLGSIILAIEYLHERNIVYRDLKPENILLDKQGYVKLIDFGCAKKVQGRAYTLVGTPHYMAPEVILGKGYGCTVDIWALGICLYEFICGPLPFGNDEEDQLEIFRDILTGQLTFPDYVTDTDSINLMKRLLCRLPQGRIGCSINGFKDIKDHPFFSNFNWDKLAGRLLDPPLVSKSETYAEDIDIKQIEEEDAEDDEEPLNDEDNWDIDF

Consider `CC(C)(CN)c1nc(-c2ccc(Cl)c(O)c2)c(-c2ccncc2)[nH]1` [MMV030084], for which, in test [1], the “PKG pull-down by bead-bound compound” value was “pulled down”. Moreover, in the test with Pf ABS parasites, the “ABS development by light microscopy” value is listed as “halted at the schizont stage”. Moreover, the half-maximal inhibitory concentration (IC50) in test [2] (read-out: IC50, sexual gametocyte stage (Figure 1B)) was above 37.5 µM; in test [2] (CBG99-luciferase assay, 48 h, read-out: IC50, early stage gametocytes), above 40 µM; in test [2] (CBG99-luciferase assay, 48 h, read-out: IC50, late stage gametocytes) it was above 40 µM; in test [3], 0.347 µM.

The IC50 is the concentration that inhibits the measured activity by half.
